Reference: ChEMBL document CHEMBL3885881, “DrugMatrix”

Species on record: Rattus norvegicus
Assay: DrugMatrix - Regimen: Daily Repeat
Assay type: toxicity, organism-based, Sprague-Dawley
Set-up: regimen Daily Repeat, gender Male, age 6-8 weeks
Conditions: in vivo, po, route oral GAVAGE, vehicle 100 % WATER; for ABSOLUTE BASOPHIL / ABSOLUTE EOSINOPHIL / ABSOLUTE LYMPHOCYTE / ABSOLUTE MONOCYTE / ABSOLUTE SEGMENTED NEUTROPHIL / BASOPHIL / EOSINOPHIL / ERYTHROCYTE COUNT / HEMATOCRIT / HEMOGLOBIN / LEUKOCYTE COUNT / LYMPHOCYTE / MEAN CORPUSCULAR HEMOGLOBIN / MEAN CORPUSCULAR HEMOGLOBIN CONCENTRATION / MEAN CORPUSCULAR VOLUME / MONOCYTE / NEUTROPHIL / NUCLEATED RED BLOOD CELLS / PLATELET COUNT: tissue Blood; for ALANINE AMINOTRANSFERASE / ALBUMIN / ALKALINE PHOSPHATASE / ASPARTATE AMINOTRANSFERASE / BLOOD UREA NITROGEN / CARBON DIOXIDE / CHLORIDE / CHOLESTEROL / CREATINE PHOSPHOKINASE / CREATININE / GLUCOSE / LACTATE DEHYDROGENASE / LIPASE / PHOSPHORUS / POTASSIUM / SODIUM / TOTAL BILIRUBIN / TOTAL PROTEIN / URIC ACID: tissue Plasma
[1] = 0 mg/kg, 72 h, dose level Control, time 3 day
[2] = 0 mg/kg, 120 h, dose level Control, time 5 day
[3] = 60 mg/kg, 72 h, dose level Low, time 3 day

## CC(C)C[C@H](NC(=O)[C@@H](O)[C@H](N)Cc1ccccc1)C(=O)O [UBENIMEX]
[1]
  ABSOLUTE BASOPHIL: 0 CELLS/uL
  ABSOLUTE EOSINOPHIL: 168.33 CELLS/uL
  ABSOLUTE LYMPHOCYTE: 13654.17 CELLS/uL
  ABSOLUTE MONOCYTE: 121 CELLS/uL
  ABSOLUTE SEGMENTED NEUTROPHIL: 1223.17 CELLS/uL
  BASOPHIL: 0%
  EOSINOPHIL: 1.17%
  ERYTHROCYTE COUNT: 5.7 x10E6/uL
  HEMATOCRIT: 35.33%
  HEMOGLOBIN: 13.97 G/DL
  LEUKOCYTE COUNT: 15.17 x10E3/uL
  LYMPHOCYTE: 89.83%
  MEAN CORPUSCULAR HEMOGLOBIN: 24.53 pg
  MEAN CORPUSCULAR HEMOGLOBIN CONCENTRATION: 39.53 G/DL
  MEAN CORPUSCULAR VOLUME: 62.05 fL
  MONOCYTE: 0.83%
  NEUTROPHIL: 8.17%
  NUCLEATED RED BLOOD CELLS: 0 /100WBC
  PLATELET COUNT: 1312.17 x10E3/uL
  ALANINE AMINOTRANSFERASE: 50.83 u/L
  ALBUMIN: 4.18 G/DL
  ALKALINE PHOSPHATASE: 334.17 u/L
  ASPARTATE AMINOTRANSFERASE: 82.17 u/L
  BLOOD UREA NITROGEN: 15.5 mg/dL
  CARBON DIOXIDE: 31.33 mmol/L
  CHLORIDE: 99.83 MEQ/L
  CHOLESTEROL: 76 mg/dL
  CREATINE PHOSPHOKINASE: 272.17 u/L
  CREATININE: 0.17 mg/dL
  GLUCOSE: 143 mg/dL
  LACTATE DEHYDROGENASE: 157.5 u/L
  LIPASE: 9.33 u/L
  PHOSPHORUS: 12.18 mg/dL
  POTASSIUM: 6.78 MEQ/L
  SODIUM: 143.9 MEQ/L
  TOTAL BILIRUBIN: 0.22 mg/dL
  TOTAL PROTEIN: 5.85 G/DL
  URIC ACID: 1.7 mg/dL
[2]
  ABSOLUTE BASOPHIL: 0 CELLS/uL
  ABSOLUTE EOSINOPHIL: 0 CELLS/uL
  ABSOLUTE LYMPHOCYTE: 13539.33 CELLS/uL
  ABSOLUTE MONOCYTE: 177.67 CELLS/uL
  ABSOLUTE SEGMENTED NEUTROPHIL: 2116.33 CELLS/uL
  BASOPHIL: 0%
  EOSINOPHIL: 0%
  ERYTHROCYTE COUNT: 5.78 x10E6/uL
  HEMATOCRIT: 36.13%
  HEMOGLOBIN: 14.1 G/DL
  LEUKOCYTE COUNT: 15.83 x10E3/uL
  LYMPHOCYTE: 85.83%
  MEAN CORPUSCULAR HEMOGLOBIN: 24.42 pg
  MEAN CORPUSCULAR HEMOGLOBIN CONCENTRATION: 39 G/DL
  MEAN CORPUSCULAR VOLUME: 62.55 fL
  MONOCYTE: 0.83%
  NEUTROPHIL: 13.33%
  NUCLEATED RED BLOOD CELLS: 0.17 /100WBC
  PLATELET COUNT: 1281.17 x10E3/uL
  ALANINE AMINOTRANSFERASE: 55.5 u/L
  ALBUMIN: 4.22 G/DL
  ALKALINE PHOSPHATASE: 345 u/L
  ASPARTATE AMINOTRANSFERASE: 92.5 u/L
  BLOOD UREA NITROGEN: 16.5 mg/dL
  CARBON DIOXIDE: 26.5 mmol/L
  CHLORIDE: 103.5 MEQ/L
  CHOLESTEROL: 78.5 mg/dL
  CREATINE PHOSPHOKINASE: 381.5 u/L
  CREATININE: 0.21 mg/dL
  GLUCOSE: 161.83 mg/dL
  LACTATE DEHYDROGENASE: 487.5 u/L
  LIPASE: 10.17 u/L
  PHOSPHORUS: 11.83 mg/dL
  POTASSIUM: 6.4 MEQ/L
  SODIUM: 146.95 MEQ/L
  TOTAL BILIRUBIN: 0.22 mg/dL
  TOTAL PROTEIN: 6.22 G/DL
  URIC ACID: 1.83 mg/dL
[3]
  ABSOLUTE BASOPHIL: 0 CELLS/uL
  ABSOLUTE EOSINOPHIL: 99.33 CELLS/uL
  ABSOLUTE LYMPHOCYTE: 13954.33 CELLS/uL
  ABSOLUTE MONOCYTE: 91 CELLS/uL
  ABSOLUTE SEGMENTED NEUTROPHIL: 1655.33 CELLS/uL
  BASOPHIL: 0%
  EOSINOPHIL: 0.67%
  ERYTHROCYTE COUNT: 5.56 x10E6/uL
  HEMATOCRIT: 33.13%
  HEMOGLOBIN: 12.97 G/DL
  LEUKOCYTE COUNT: 15.8 x10E3/uL
  LYMPHOCYTE: 88.33%
  MEAN CORPUSCULAR HEMOGLOBIN: 23.33 pg
  MEAN CORPUSCULAR HEMOGLOBIN CONCENTRATION: 39.17 G/DL
  MEAN CORPUSCULAR VOLUME: 59.53 fL
  MONOCYTE: 0.67%
  NEUTROPHIL: 10.33%
  NUCLEATED RED BLOOD CELLS: 0 /100WBC
  PLATELET COUNT: 1252.67 x10E3/uL
  ALANINE AMINOTRANSFERASE: 58 u/L
  ALBUMIN: 4.13 G/DL
  ALKALINE PHOSPHATASE: 310.67 u/L
  ASPARTATE AMINOTRANSFERASE: 96.67 u/L
  BLOOD UREA NITROGEN: 15.67 mg/dL
  CARBON DIOXIDE: 29.33 mmol/L
  CHLORIDE: 100 MEQ/L
  CHOLESTEROL: 80 mg/dL
  CREATINE PHOSPHOKINASE: 475.33 u/L
  CREATININE: 0.2 mg/dL
  GLUCOSE: 142 mg/dL
  LACTATE DEHYDROGENASE: 612.67 u/L
  LIPASE: 9.67 u/L
  PHOSPHORUS: 11.07 mg/dL
  POTASSIUM: 6.61 MEQ/L
  SODIUM: 143.5 MEQ/L
  TOTAL BILIRUBIN: 0.17 mg/dL
  TOTAL PROTEIN: 5.8 G/DL
  URIC ACID: 1.47 mg/dL
